Test results as given in patent US8642622B2, “Piperidinyl compound as a modulator of chemokine receptor activity” (Bristol-Myers Squibb Company, priority 2010, dated 2014).

Target: T1, Human PXR (Homo sapiens, UniProt O75469)
T1 construct: expressed in transfected cells; host or cells: HepG2
T1 sequence (O75469 1-434): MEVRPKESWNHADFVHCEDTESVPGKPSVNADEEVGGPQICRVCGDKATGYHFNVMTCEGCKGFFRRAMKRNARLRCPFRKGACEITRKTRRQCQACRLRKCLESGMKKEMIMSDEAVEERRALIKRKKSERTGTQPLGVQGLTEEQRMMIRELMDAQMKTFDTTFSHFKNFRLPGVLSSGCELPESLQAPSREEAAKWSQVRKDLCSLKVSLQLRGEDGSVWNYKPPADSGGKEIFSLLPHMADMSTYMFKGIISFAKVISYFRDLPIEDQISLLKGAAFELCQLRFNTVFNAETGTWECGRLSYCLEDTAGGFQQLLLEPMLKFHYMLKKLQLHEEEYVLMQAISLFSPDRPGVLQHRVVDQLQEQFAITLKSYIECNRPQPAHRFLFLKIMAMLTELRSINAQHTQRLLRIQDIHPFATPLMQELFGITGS
Experiment: PXR transactivation assay (HepG2, CYP3A-Luc reporter)
Type: cell-based
Text: The cell culture medium used is DMEM. […] Charcoal/dextran treated fetal bovine serum (FBS) was purchased from Hyclone (Logan, Utah). HepG2 cells were obtained from ATCC (Manassas, Va.). Human PXR-pcDNA3 and luciferase reporter containing CYP3A4 promoter, CYP3A-Luc, were generated at Bristol-Myers Squibb. White tissue culture (TC)-surface 384-well plates were purchased from Perkin Elmer (Boston, Mass.). Luciferase substrate (Steady-Glo) was purchased from Promega (Madison, Wis.). Control compounds rifampicin, mifepristone, and sulfinpyrazone were purchased from Sigma (St. Louis, Mo.).
Culture of HepG2 cells is performed in T175 flasks using DMEM containing 10% FBS. The transfection mixture contains 1 μg/mL of PXR-pcDNA3 plasmid DNA, 20 μg/ml of Cyp3A-Luc plasmid DNA, 90 μL/mL of Lipofectamine 2000, and serum-free medium. After incubating at room temperature for 20 minutes, the transfection mixture (1 ml per flask) is applied to the cells in fresh medium (20 mL per flask), and flasks incubated at 37° C. (5% CO2) overnight.
The flasks are then tapped vigorously to break up cell aggregates. After the addition of 8 mL of DMEM containing 5% charcoal/dextran-treated FBS, the entire mixture is transferred to conical tubes. Cells are then centrifuged at 1000 rpm for 5 minutes. Cell pellets are resuspended to a final count of ˜7×10^6 cells/mL in freezing media (DMEM containing 20% serum and 10% DMSO). The cell suspension is aliquoted into 15-mL polypropylene tubes, 5 mL per tube. Cells are slowly frozen by placing in a Styrofoam-insulated container at −80° C. overnight. Vials are transferred to an Ultracold (−140° C.) freezer after 24 hours for long-term storage.
Vials of cryopreserved cells are thawed rapidly in a warm water bath for five minutes. Cells are pooled and diluted to 50 mL in a 50-mL conical vial. The thawed cells are centrifuged at 1500 rpm for 5 minutes to collect the cells and the supernatant discarded. Cells are then resuspended in fresh Media II (DMEM containing 5% charcoal/dextran-treated FBS, 1% Penicillin/Streptomycin, 100 μM Non-essential Amino Acids, 1 mM Sodium Pyruvate, and 2 mM L-Glutamine), counted using the Guava Cell Counter, and diluted to 1.6×10^5 cells/ml in the same media.
Fifty microliters of cell mixture is added to wells in columns 1-23 of white tissue-culture treated 384-well plates containing 0.25 μL of test compound dissolved in 100% DMSO. Fifty microliters of Media II is added to wells in column 24. The plates are incubated at 37° C. (5% CO2) for 24 hours, then 5 μL of Alamar Blue reagent (Trek Diagnostics, Cat #00-100) is added to each well. Plates are then incubated an additional two hours at 37° C., 5% CO2 and then one hour at room temperature. […] After the fluorescence is measured, 25 μL of luciferase substrate (Steady-Glo, Promega) is added to each well. The plates are incubated for fifteen minutes at room temperature, after which the luminescence is read on a PheraStar (BMG Labtech) plate reader.
Rifampicin (10 μM), a well-known agonist of PXR, is included in each plate as an internal standard and positive control. The data is then expressed as percent control (% CTRL), where the control signal is the signal from the 10 μM rifampicin and the blank signal is that from the DMSO vehicle. % CTRL=((Compound signal−Blank signal)/(Control signal−Blank signal))*100
The EC50 is defined as the concentration corresponding to half of the maximal response derived from the fitted 20-point curve as determined using a four-parameter logistic regression model. Additionally, compounds may also be reported as EC20 or EC60.

PXR EC20 (reported as EC20) | Compound | PXR activation (in vitro screen, in words) | EC50 (HepG2, relative to 10 μM rifampicin)
– | CC(C)[C@@H](NC(=O)[C@@H]1CCC(F)(F)C1)C(=O)N1CC[C@](O)(c2ccc(Cl)cc2)[C@@](C)(O)C1 [Compound I, (R)—N—((R)-1-((3S,4S)-4-(4-chlorophenyl)-3,4-dihydroxy-3-methylpiperidin-1-yl)-3-methyl-1-oxobutan-2-yl)-3,3-difluorocyclopentanecarboxamide] | not a significant activator | > 50 µM
1.9 (EC20) μM | CC(C)COC(=O)N[C@@H](C(=O)N1CC[C@](O)(c2ccc(Cl)cc2)C(C)(C)C1)C(C)C [Example 1083] | – | –
